Experimental data as given in US11484558B2, “Epizootic hemorrhagic disease virus—tel aviv university (EHDV-TAU)—oncolytic virus for treating cancer” (Ramot at Tel-Aviv University Ltd., priority 2017, dated 2022).

Columns and labels:
[1] = test system: LNCaP-JAK1 cells; assay: SILAC proteome analysis of LNCaP-JAK1 cells; settings: for number of ISGs upregulated (of 50 ISGs): LNCaP-JAK1, cytokine treatment alone
Method: Stable Isotope Labeling by Amino Acids Analysis (S/LAC)—LNCaP and LNCaP-JAK1 cells were grown in RPMI devoid of lysine and arginine (Thermo, Cat. #A2494401), supplemented with 10% dialyzed FCS (Biological Industries, cat. #04-011-1A) and antibiotics for ten cell divisions (^˜3 weeks). “Heavy” culture medium was supplemented with ^13C6^15N2-lysine (146 mg/ml, cat. #CNLM-291-H) and ^13C6^15N4-arginine (84 mg/ml cat. #CNLM-539-H) both from Cambridge Isotope Laboratories. “Light” labeled culture medium was supplemented with unmodified lysine and arginine at the same concentrations. To avoid potential bias in the analysis, in any given condition, cultures were labeled with heavy (H) or light (L) amino acids; or with the reciprocal labeling. Each H-L pair was repeated twice. Thus, quantification of each condition was based on four independent replicates. Labeled cells, either treated or untreated, were trypsinized, counted, and washed twice in cold PBS. Samples were digested by trypsin and analyzed by Liquid chromatography tandem-mass spectrometry (LC-MS/MS) on Q Exactive hybrid quadrupole-Orbitrap mass spectrometer (Thermo Scientific). The data were analyzed and quantified with MaxQuant 1.5.2.8, using the human Uniprot database. Proteins were identified with false discovery rate (FDR)<0.01.

[2] = test system: LNCaP cells; assay: SILAC proteome analysis of LNCaP cells; settings: IL-6 5 ng/ml for 16 hours
[3] = test system: LNCaP-JAK1 cells; assay: Cell cycle analysis (sub-G1, PI, FACS) of LNCaP-JAK1 cells; assay type: cell-based, human; settings: LNCaP-JAK1, IL-6 treatment
Method: RPMI (supplemented with 10% FCS, 10 ml) was added post-fixation, after which cells were pelleted, washed twice with cold PBS and re-suspended in PBS supplemented with RNase A (20 μg/ml, 30 minutes). Following additional pelleting, cells were re-suspended in Propidium Iodide (P1) solution (50 μg/ml in PBS) and analyzed by FACS (Becton Dickinson).

[4] = test system: LNCaP cells; assay: Preliminary experiments, toxicity of TSA to LNCaP cells; assay type: cell-based, human; settings: longer incubation periods (84 to 96 hours)
[5] = test system: LNCaP-JAK1 cells; assay: IFNα-induced pSTAT1 in LNCaP-JAK1 cells (immunoblot); assay type: cell-based, human; settings: LNCaP-JAK1, 200 U/ml for 2 hours
[6] = test system: DU145 cells; assay: Virus-induced death of DU145 cells with IFN; assay type: cell-based, human; settings: DU145, IFN alone
[7] = test system: DU145 cells; assay: IFNα-mediated STAT1 phosphorylation in DU145 cells (immunoblot); assay type: cell-based, human
[8] = test system: LNCaP-JAK1 cells; assay: qRT-PCR of IFIT5 and IRF7 in LNCaP-JAK1 cells after IFNα; assay type: cell-based, human; settings: LNCaP-JAK1, IFNα 200 U/ml for 24 hours
Method: The average expression level of untreated cells was taken as 1. *p<0.05.
qRT-PCR—Total RNA was extracted from cells using EZ-RNA kit (Biological Industries, Israel, cat. #20-400-100) according to the manufacturer's instructions. First-strand cDNA synthesis was performed using the iScript cDNA Synthesis Kit (Bio Rad cat. #1708890) according to the manufacturer's instructions, with additional no-RNA control. Real-Time PCR analyses of mRNA levels of the genes of interest, relative to GAPDH mRNA levels were performed in triplicates, using Fast SYBR-green master mix (Applied Biosystems, cat. #4385612) with StepOnePlus Real-Time PCR System (Applied Biosystems, cat. #4376600). Primers were designed to span exon-exon junctions and to produce 80-140 bp amplicons. Gene expression values were calculated based on the comparative threshold cycle method.

[9] = test system: LNCaP cells; assay type: cell-based, human
[10] = test system: LNCaP cells; assay: Immunofluorescence of NS3-positive infected LNCaP cells with or without IFNα; assay type: cell-based, human; settings: IFNα 200 U/ml for 45 hours
Method: (§1) Quantification of percentage NS3 positive cells was from multiple (n=5) randomly selected fields, imaged under the same conditions as in FIG. 4D; *p<0.05.
(§2) Immunofluorescence—DU145 or LNCaP cells were seeded (5×10^4 cells/well) onto glass coverslips placed in a 24-well plate, and were infected, or not, with EHDV-TAU-LNCaP, in the presence or absence of IFNα. At 44 hours post infection (hpi) or 2 hours (for IFNα treatment), cells were washed twice with cold PBS (4° C.), fixed (4% paraformaldehyde for 20 minutes), blocked and permeabilized (PBS 1%/BSA 0.1%/Triton 0.1% (PBS/BSA/T) for 30 minutes), and stained with polyclonal anti-NS3 (1:300 dilution in PBS/BSA/T). Alexa-488 or 555-conjugated goat-anti-rabbit antibodies (1:200 dilution in PBS/BSA/T) were used as secondary antibodies. In order to detect nuclear phosphorylated STAT1, cells were fixed (4% paraformaldehyde for 20 minutes) and permeabilized with ice-cold methanol (10 minutes at −20° C.). Cells were stained with Rabbit-anti phospho-Tyr701-STAT1 (1:100 dilution in PBS/BSA/T) for overnight at 4° C. Mounting was with Fluorescence Mounting Medium (Golden Bridge, Mukilteo, Wash., USA, cat. #E1818).

[11] = test system: LNCaP cells; assay: IFNα-mediated STAT1 phosphorylation in LNCaP cells (immunoblot); assay type: cell-based, human
[12] = test system: LNCaP-JAK1 cells; assay: Trypan blue exclusion assay of LNCaP-JAK1 cells; assay type: cell-based, human
Method: Graph depicts mean±SE (n=5) of the percentage of trypan blue permeable cells with and without IFNα. **p<0.005.
Graph depicts mean±SE (n=10).**p<0.005; ns, non-significant.
In the presence of Q-VD-OPh (throughout pre-treatment and infection). **p<0.01.
The indicated cells were treated and infected as in FIG. 9B, and the percentage of dead cells was determined by trypan blue exclusion assay. Graph depicts mean±SE of the percentage of dead cells with and without IFNγ (n=3). **p<0.005; ns (non-significant).
Trypan blue exclusion assay—2×10^5 LNCaP cells/well in a 12-well plate were infected, or not, under the indicated experimental conditions. For each well, detached and attached cells were collected together and mixed with 0.5% trypan blue at a 1:1 ratio. Cells were classified by trypan blue exclusion by light microscopy. Trypan blue (0.5%) was from Beit Haemek Biological Industries, Israel (cat. #03-102-1B).

[13] = test system: DU145 cells; assay: Immunofluorescence of NS3-positive infected DU145 cells with or without IFNα; assay type: cell-based, human; settings: DU145, IFNα 200 U/ml for 45 hours
Method: as §1, §2

[14] = test system: LNCaP-JAK1 cells; assay type: cell-based, human
[15] = test system: LNCaP-JAK1 cells; assay: Immunoblot of STAT1 and STAT3 phosphorylation after IFNγ in LNCaP-JAK1 cells; assay type: cell-based, human; settings: LNCaP-JAK1, IFNγ 25 ng/ml for 20 minutes
Method: LNCaP and LNCaP-JAK1 cells were exposed to 25 ng/ml of IFNγ for 20 minutes.

IL-6: Human IL-6 (PeproTech), pleiotropic cytokine
number of ISGs upregulated (of 50 ISGs) [1]: 16 | number of ISGs upregulated (of 50 ISGs) [2]: 3 | percentage of cells exhibiting sub-G1 DNA content [3]: slight increase

CC(/C=C/C(=O)NO)=C\[C@@H](C)C(=O)c1ccc(N(C)C)cc1 [TSA, trichostatin A]
toxicity to LNCaP cells [4]: toxic

IFNα
pSTAT1 levels upon IFNα stimulation [5]: dramatic increases in pSTAT1 levels | protection from virus-induced death [6]: significantly protect | STAT1 phosphorylation in response to IFNα ([7]; DU145, 200 U/ml for 4 hours): robust STAT1 phosphorylation | increase in pSTAT1 levels ([7]; DU145, 30 minutes post stimulation with 200 U/ml IFNα): 18±11 fold | expression of IFIT5 and IRF7 [8]: marked induction | activation of ISRE luciferase reporter [9]: 1.2±0.1 fold | effect of IFNα on EHDV-TAU-LNCaP infection [10]: negligible effects | pSTAT1 in response to IFNα ([11]; 200 U/ml for 4 hours): only residual pSTAT1 levels | increase in pSTAT1 levels ([11]; 30 minutes post stimulation with 200 U/ml IFNα): 4.2±2.5 fold | number of ISGs upregulated (of 50 ISGs) [1]: 17 | enrichment of ISGs in IFNα-induced proteome changes ([1]; LNCaP-JAK1 compared to parental LNCaP cells): 24.4% | effect on EHDV-TAU-LNCaP-induced cell death ([12]; LNCaP-JAK1, IFNα 200 U/ml): protection from EHDV-TAU-LNCaP-induced cell death was observed | effect of IFNα on NS3 signal of EHDV-TAU-LNCaP-infected cultures [13]: abrogated the NS3 signal | effect on production of infectious virions [14]: inhibited production of infectious virions

COC(=O)CC(NC(=O)C(NC(=O)c1ccc2ccccc2n1)C(C)C)C(=O)COc1c(F)cccc1F (stereo not shown) [Q-VD-OPh, Quinolyl-valyl-O-methylaspartyl-[-2,6-difluorophenoxy]-methyl ketone, reference compound]
effect of caspase inhibition on death of infected cells ([12]; LNCaP-JAK1, Q-VD-OPh 20 μM, regardless of the presence of IL-6): to basal levels

B1: IFNγ: human IFNγ (PeproTech) (protein, UniProt P01579 24-161, looked up)
Interferon gamma: QDPYVKEAENLKKYFNAGHSDVADNGTLFLGILKNWKEESDRKIMQSQIVSFYFKLFKNFKDDQSIQKSVETIKEDMNVKFFNSNKKKRDDFEKLTNYSVTDLNVQRKAIHELIQVMAELSPAAKTGKRKRSQMLFRG
number of ISGs induced ([1]; LNCaP-JAK1, IFNγ 25 ng/ml, 14 hours): 35 | effect on death of infected cells ([12]; LNCaP-JAK1, IFNγ 25 ng/ml): supported oncolysis by non-productive viral infection | STAT activation [15]: activated STAT1 (but not STAT3)
